Measured values as given in patent US12594267B2, “Capsid inhibitors for the treatment of HIV” (Gilead Sciences, Inc., priority 2018, dated 2026).
Where two headings read alike, the source gives them in different places.

Assay: PK after subcutaneous administration of solutions in rats
Assay type: in vivo, Wistar Han rat
Details: for Plasma concentration: 0 h
Method: Formulations containing the compound of Formula (Ia) were prepared as aqueous solutions or oral formulations and administered subcutaneously to rats, dogs, cynomolgus monkey, and/or rhesus monkey.
A solution of the compound of Formula (Ia) in 10% ethanol, 13% water, and 77% PEG 200 (400 mg/mL) was prepared. The solution was administered subcutaneously to dogs at a dose of 12 mg/kg and rats at a dose of 50 mg/kg and the pharmacokinetic (PK) profile was determined. […] In both species, plasma concentrations of the compound of Formula (Ia) were maintained above the target trough concentration of 20 nM (corresponding to an IQ of 5) for at least 84 days (12 weeks).
A solution of the free acid of the compound of Formula (Ia) in 15% water and 85% PEG 300 (300 mg/mL) was prepared. The solution was administered subcutaneously to male Wistar Han rats at a dose level of 50 mg/kg and dose volume of 0.167 mL/kg and the pharmacokinetic (PK) profile was determined.
A 300 mg/ml solution of a compound of Formula (Ia) having 9.8 w/w % water, 65.0 w/w % PEG 300, and 25.2 w/w % of the compound of Formula (Ia) was prepared. The solution was administered subcutaneously to rats at a dose of 50 mg/kg and to dogs at a dose of 12 mg/kg and the pharmacokinetic (PK) profile was determined. […] In the rat, plasma concentrations of the compound of Formula (Ia) were maintained above the target trough concentration of 20 nM for at least 168 days (24 weeks). In the dog, plasma concentrations of the compound of Formula (Ia) were maintained above the target trough concentration of 20 nM for at least 84 days (12 weeks).
(§1) A 150 mg/ml solution of a compound of Formula (Ia) having 27.92 w/w % water, 58.04 w/w % PEG 300, 13.47 w/w % of a compound of Formula (Ia), and 1.1 w/w % NaOH was prepared. The solution was administered subcutaneously to rats at a dose of 50 mg/kg and to dogs at a dose of 12 mg/kg and the pharmacokinetic (PK) profile was determined. […] In the rat, plasma concentrations of the compound of Formula (Ia) were maintained above the target trough concentration of 20 nM for at least 126 days (18 weeks). In the dog, plasma concentrations of the compound of Formula (Ia) were maintained above the target trough concentration of 20 nM for at least 56 days (8 weeks).
as §1, with “300” for “150”, “23.2” for “27.92”, “50.0” for “58.04”, “25.7” for “13.47”
A 50 mg/ml solution of a compound of Formula (Ia) having 30.07 w/w % water, 64.40 w/w % PEG 300, 4.68 w/w % of a sodium salt of the compound of Formula (Ia), and 0.85 w/w % poloxamer 188 was prepared. The solution was administered subcutaneously to rats at a dose of 50 mg/kg and to dogs at a dose of 6 mg/kg and the pharmacokinetic (PK) profile was determined. […] In the rat, plasma concentrations of the compound of Formula (Ia) were maintained above the target trough concentration of 20 nM for at least 28 days (4 weeks). In the dog, plasma concentrations of the compound of Formula (Ia) were maintained above the target trough concentration of 20 nM for at least 14 days (2 weeks).
A 75 mg/ml solution of a compound of Formula (Ia) having 29.21 w/w % water, 62.55 w/w % PEG 300, 6.97 w/w % of a sodium salt of the compound of Formula (Ia), and 1.68 w/w % poloxamer 188 was prepared. The solution was administered subcutaneously to rats at a dose of 50 mg/kg and to dogs at a dose of 6 mg/kg and the pharmacokinetic (PK) profile was determined. […]

[1] = male, Wistar Han, rat, plasma, sc, 50 mg/kg, rat #3, SC 50 mg/kg, 300 mg/mL in 15% water/85% PEG 300
[2] = male, Wistar Han, rat, plasma, sc, 50 mg/kg, rat mean, n=3, SC 50 mg/kg, 300 mg/mL in 15% water/85% PEG 300
[3] = rat, SC 50 mg/kg, 75 mg/mL solution (w/w %: 29.21 water, 62.55 PEG 300, 6.97 sodium salt of Formula (Ia), 1.68 poloxamer 188), mean ± SD, n=3
[4] = rat, SC 50 mg/kg, 125 mg/mL solution (w/w %: 27.51 water, 58.92 PEG 300, 11.48 sodium salt of Formula (Ia), 2.09 poloxamer 188), mean ± SD, n=3
[5] = rat, SC 50 mg/kg, 150 mg/mL solution (w/w %: 26.6 water, 56.97 PEG 300, 13.39 Formula (Ia), 0.57 NaOH, 2.49 poloxamer 188), mean ± SD, n=3
[6] = rat, SC 50 mg/kg, 300 mg/mL solution (w/w %: 9.8 water, 65.0 PEG 300, 25.2 Formula (Ia)), mean ± SD, n=3
[7] = rat, SC 50 mg/kg, 300 mg/mL solution (w/w %: 21.97 water, 47.05 PEG 300, 25.21 Formula (Ia), 1.08 NaOH, 4.69 poloxamer 188), mean ± SD, n=3

CC(C)(C#Cc1ccc(-c2ccc(Cl)c3c(NS(C)(=O)=O)nn(CC(F)(F)F)c23)c([C@H](Cc2cc(F)cc(F)c2)NC(=O)Cn2nc(C(F)(F)F)c3c2C(F)(F)[C@@H]2C[C@H]32)n1)S(C)(=O)=O [Formula (Ia), N—((S)-1-(3-(4-chloro-3-(methylsulfonamido)-1-(2,2,2-trifluoroethyl)-1H-indazol-7-yl)-6-(3-methyl-3-(methylsulfonyl)but-1-yn-1-yl)pyridin-2-yl)-2-(3,5-difluorophenyl)ethyl)-2-((3bS,4aR)-5,5-difluoro-3-(trifluoromethyl)-3b,4,4a,5-tetrahydro-1H-cyclopropa[3,4]cyclopenta[1,2-c]pyrazol-1-yl)acetamide]
concentration at 96 h [1]: 85.2 nM
concentration at 168 h [1]: 137 nM
concentration at 336 h [1]: 284 nM
concentration at 504 h [1]: 281 nM
concentration at 672 h [1]: 304 nM
concentration at 840 h [1]: 302 nM
concentration at 1008 h [1]: 289 nM
concentration at 1344 h [1]: 278 nM
concentration at 1680 h [1]: 200 nM
concentration at 1 h (male, Wistar Han, rat, plasma, sc, 50 mg/kg, rat mean, n=3, 1 h, SC 50 mg/kg, 300 mg/mL in 15% water/85% PEG 300): 8.6 nM
concentration at 3 h (male, Wistar Han, rat, plasma, sc, 50 mg/kg, rat mean, n=3, 3 h, SC 50 mg/kg, 300 mg/mL in 15% water/85% PEG 300): 21.5 nM
concentration at 8 h (male, Wistar Han, rat, plasma, sc, 50 mg/kg, rat mean, n=3, 8 h, SC 50 mg/kg, 300 mg/mL in 15% water/85% PEG 300): 32.2 nM
concentration at 24 h (male, Wistar Han, rat, plasma, sc, 50 mg/kg, rat mean, n=3, 24 h, SC 50 mg/kg, 300 mg/mL in 15% water/85% PEG 300): 48.2 nM
concentration at 48 h (male, Wistar Han, rat, plasma, sc, 50 mg/kg, rat mean, n=3, 48 h, SC 50 mg/kg, 300 mg/mL in 15% water/85% PEG 300): 70.6 nM
concentration at 72 h (male, Wistar Han, rat, plasma, sc, 50 mg/kg, rat mean, n=3, 72 h, SC 50 mg/kg, 300 mg/mL in 15% water/85% PEG 300): 67.5 nM
concentration at 96 h [2]: 75.8 nM
concentration at 168 h [2]: 137 nM
concentration at 336 h [2]: 272 nM
concentration at 504 h [2]: 292 nM
concentration at 672 h [2]: 312 nM
concentration at 840 h [2]: 313 nM
concentration at 1008 h [2]: 282 nM
concentration at 1344 h [2]: 253 nM
concentration at 1680 h [2]: 189 nM
AUC(0-t) (male, Wistar Han, rat, plasma, sc, 50 mg/kg, rat, single SC 50 mg/kg, 300 mg/mL free acid in 85:15 w/w PEG 300:water, mean ± SD, n=3, read-out: AUC0-168h): 13.3 ± 0.3 µM·h
AUC(0-t) (male, Wistar Han, rat, plasma, sc, 50 mg/kg, rat, single SC 50 mg/kg, 300 mg/mL free acid in 85:15 w/w PEG 300:water, mean ± SD, n=3, read-out: AUC0-336h): 47.6 ± 1.2 µM·h
AUC(0-t) (male, Wistar Han, rat, plasma, sc, 50 mg/kg, rat, single SC 50 mg/kg, 300 mg/mL free acid in 85:15 w/w PEG 300:water, mean ± SD, n=3, read-out: AUC0-672h): 146 ± 6 µM·h
Plasma concentration (rat #1, SC 50 mg/kg, 300 mg/mL in 15% water/85% PEG 300): BLQ
Plasma concentration (rat #2, SC 50 mg/kg, 300 mg/mL in 15% water/85% PEG 300): BLQ
Plasma concentration (rat #3, SC 50 mg/kg, 300 mg/mL in 15% water/85% PEG 300): BLQ
Time plasma concentrations maintained above the target trough concentration of 20 nM (rat, SC 50 mg/kg, 50 mg/mL solution (w/w %: 30.07 water, 64.40 PEG 300, 4.68 sodium salt of Formula (Ia), 0.85 poloxamer 188)): at least 28 days
AUC0-28d (rat, SC 50 mg/kg, 50 mg/mL solution (w/w %: 30.07 water, 64.40 PEG 300, 4.68 sodium salt of Formula (Ia), 0.85 poloxamer 188), mean ± SD, n=3): 643 ± 75 µM·h
Time plasma concentrations maintained above the target trough concentration of 20 nM (rat, SC 50 mg/kg, 75 mg/mL solution (w/w %: 29.21 water, 62.55 PEG 300, 6.97 sodium salt of Formula (Ia), 1.68 poloxamer 188)): at least 42 days
AUC0-7d [3]: 241 ± 22 µM·h
AUC0-28d [3]: 690 ± 32 µM·h
Time plasma concentrations maintained above the target trough concentration of 20 nM (rat, SC 50 mg/kg, 100 mg/mL solution (w/w %: 28.36 water, 60.73 PEG 300, 9.23 sodium salt of Formula (Ia), 1.68 poloxamer 188)): at least 28 days
AUC0-28d (rat, SC 50 mg/kg, 100 mg/mL solution (w/w %: 28.36 water, 60.73 PEG 300, 9.23 sodium salt of Formula (Ia), 1.68 poloxamer 188), mean ± SD, n=3): 716 ± 62 µM·h
Time plasma concentrations maintained above the target trough concentration of 20 nM (rat, SC 50 mg/kg, 125 mg/mL solution (w/w %: 27.51 water, 58.92 PEG 300, 11.48 sodium salt of Formula (Ia), 2.09 poloxamer 188)): at least 28 days
AUC0-7d [4]: 153 ± 38 µM·h
AUC0-28d [4]: 673 ± 67 µM·h
Time plasma concentrations maintained above the target trough concentration of 20 nM (rat, SC 50 mg/kg, 150 mg/mL solution (w/w %: 26.6 water, 56.97 PEG 300, 13.39 Formula (Ia), 0.57 NaOH, 2.49 poloxamer 188)): at least 98 days
AUC0-98d [5]: 949 ± 114 µM·h
AUC0-112d [5]: 963 ± 102 µM·h
Time plasma concentrations maintained above the target trough concentration of 20 nM (rat, SC 50 mg/kg, 150 mg/mL solution (w/w %: 27.92 water, 58.04 PEG 300, 13.47 Formula (Ia), 1.1 NaOH)): at least 126 days
AUC0-98d (rat, SC 50 mg/kg, 150 mg/mL solution (w/w %: 27.92 water, 58.04 PEG 300, 13.47 Formula (Ia), 1.1 NaOH), mean ± SD, n=3): 801 ± 119 µM·h
Time plasma concentrations maintained above the target trough concentration of 20 nM (rat, SC 50 mg/kg, 300 mg/mL solution (w/w %: 9.8 water, 65.0 PEG 300, 25.2 Formula (Ia))): at least 168 days
AUC0-98d [6]: 531 ± 30 µM·h
AUC0-168d [6]: 730 ± 55 µM·h
Time plasma concentrations maintained above the target trough concentration of 20 nM (rat, SC 50 mg/kg, 300 mg/mL solution (w/w %: 21.97 water, 47.05 PEG 300, 25.21 Formula (Ia), 1.08 NaOH, 4.69 poloxamer 188)): at least 98 days
AUC0-98d [7]: 928 ± 175 µM·h
AUC0-140d [7]: 948 ± 169 µM·h
Time plasma concentrations maintained above the target trough concentration of 20 nM (rat, SC 50 mg/kg, 300 mg/mL solution (w/w %: 23.2 water, 50.0 PEG 300, 25.7 Formula (Ia), 1.1 NaOH)): at least 126 days
AUC0-126d (rat, SC 50 mg/kg, 300 mg/mL solution (w/w %: 23.2 water, 50.0 PEG 300, 25.7 Formula (Ia), 1.1 NaOH), mean ± SD, n=3): 698 ± 13 µM·h
Time plasma concentrations maintained above the target trough concentration of 20 nM (rat, SC 50 mg/kg, 400 mg/mL solution in 10% ethanol, 13% water, 77% PEG 200): at least 84 days
AUC0-84d (rat, SC 50 mg/kg, 400 mg/mL solution in 10% ethanol, 13% water, 77% PEG 200, mean ± SD, n=3): 404 ± 139 µM·h
AUC0-1680h (rat, single SC 50 mg/kg, 300 mg/mL free acid in 85:15 w/w PEG 300:water, mean ± SD, n=3): 412 ± 21 µM·h
